Data as given in patent US8389523B2, “Substituted quinoxaline and an agrochemical composition thereof” (Kumiai Chemical Industry Co., Ltd., priority 2007, dated 2013).

Tests used:
Type in all cases: in vivo
Set-up in all cases: scale not given here
[1] = test system: Echinochloa crus-galli (L.) P. Beauv. var. crus-galli; test: Herbicidal effects in upland field foliar treatment (Test Example 3); conditions: criteria of Table 138; for herbicidal effect (index) on Echinochloa crus-galli (L.) P. Beauv. var. crus-galli: 1000 g active ingredient per hectare, 14th day after treatment; for herbicidal effects on Echinochloa crus-galli (L.) P. Beauv. var. crus-galli: 1000 g of the active ingredient per hectare, 14th day after the treatment, wettable powder
How it was run: (§1)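 Foliar spray of diluted wettable powder, 1000 g a.i./ha in 1000 L/ha, onto two-week-old greenhouse-grown seedlings in upland field soil. Plants kept in the greenhouse, with effect rated on a criteria scale at day 14.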

Amaranthus viridis L. [2] = test: as above; conditions: criteria of Table 138; for herbicidal effect (index) on Amaranthus viridis L.: 1000 g active ingredient per hectare, 14th day after treatment; for herbicidal effects on Amaranthus viridis L.: 1000 g of the active ingredient per hectare, 14th day after the treatment, wettable powder
How it was run: as §1

[3] = test system: Abutilon theophrasti medicus; test: as above; conditions: criteria of Table 138; for herbicidal effect (index) on Abutilon theophrasti medicus: 1000 g active ingredient per hectare, 14th day after treatment; for herbicidal effects on Abutilon theophrasti medicus: 1000 g of the active ingredient per hectare, 14th day after the treatment, wettable powder
How it was run: as §1

Amaranthus viridis L. [4] = test: Herbicidal effects in upland field soil treatment (Test Example 2); conditions: 1000 g active ingredient per hectare, 21st day after treatment, criteria of Table 138
How it was run: (§2)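 Herbicidal effect graded 21 days after treatment, plants kept in greenhouse. Treatment was a soil-surface spray of wettable powder in water, 1000 g a.i./ha in 1000 L/ha, applied after sowing and covering seeds.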

[5] = test system: Abutilon theophrasti medicus; test: as above; conditions: 1000 g active ingredient per hectare, 21st day after treatment, criteria of Table 138
How it was run: as §2

[6] = test system: Echinochloa oryzicola Vasing; test: Herbicidal effects in paddy field soil treatment (Test Example 1); conditions: for Herbicidal effects index, Echinochloa oryzicola Vasing: paddy field soil treatment, 1000 g of the active ingredient per hectare, wettable powder added dropwise on water surface, 21st day after treatment; for herbicidal effect (index) on Echinochloa oryzicola Vasing: paddy field soil treatment (Test Example 1), criteria of Table 138
How it was run: (§3)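 Application rate 1000 g a.i./ha, delivered as water-diluted wettable powder onto flooded (3 cm) paddy soil one day after sowing. Plants kept in a greenhouse and evaluated for herbicidal effect on day 21 post-treatment.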

[7] = test system: Monochoria vaginalis (Burm. f.) Presl var. plantaginea (Roxb.) Solms-Laub.; test: as above; conditions: for Herbicidal effects index, Monochoria vaginalis (Burm. f.) Presl var. plantaginea (Roxb.) Solms-Laub.: paddy field soil treatment, 1000 g of the active ingredient per hectare, wettable powder added dropwise on water surface, 21st day after treatment; for herbicidal effect (index) on Monochoria vaginalis (Burm. f.) Presl var. plantaginea (Roxb.) Solms-Laub.: paddy field soil treatment (Test Example 1), criteria of Table 138
How it was run: as §3

[8] = test system: Scirpus juncoides Roxb. var. ohwianus. T. Koyama; test: as above; conditions: for Herbicidal effects index, Scirpus juncoides Roxb. var. ohwianus. T. Koyama: paddy field soil treatment, 1000 g of the active ingredient per hectare, wettable powder added dropwise on water surface, 21st day after treatment; for herbicidal effect (index) on Scirpus juncoides Roxb. var. ohwianus. T. Koyama: paddy field soil treatment (Test Example 1), criteria of Table 138
How it was run: as §3

SMILES	herbicidal effect (index) on Echinochloa crus-galli (L.) P. Beauv. var. crus-galli [1]	herbicidal effect (index) on Amaranthus viridis L. (Amaranthus viridis L. [2])	herbicidal effect (index) on Abutilon theophrasti medicus [3]	herbicidal effect (index) on Amaranthus viridis L. (Amaranthus viridis L. [4])	herbicidal effect (index) on Abutilon theophrasti medicus [5]	Herbicidal effects index, Echinochloa oryzicola Vasing [6]	Herbicidal effects index, Monochoria vaginalis (Burm. f.) Presl var. plantaginea (Roxb.) Solms-Laub. [7]	Herbicidal effects index, Scirpus juncoides Roxb. var. ohwianus. T. Koyama [8]	herbicidal effects on Echinochloa crus-galli (L.) P. Beauv. var. crus-galli [1]	herbicidal effects on Amaranthus viridis L. (Amaranthus viridis L. [2])	herbicidal effects on Abutilon theophrasti medicus [3]	herbicidal effect (index) on Echinochloa oryzicola Vasing [6]	herbicidal effect (index) on Monochoria vaginalis (Burm. f.) Presl var. plantaginea (Roxb.) Solms-Laub. [7]	herbicidal effect (index) on Scirpus juncoides Roxb. var. ohwianus. T. Koyama [8]
O=C1CCCC(O)=C1C(=O)c1nc2ccccc2n(-c2cccc(Cl)c2)c1=O [II-11]	5	5	5	5	5	5	5	5	–	–	–	–	–	–
CC1(C)CCC(=O)C(C(=O)c2cnc3ccccc3n2)=C1O [comparative compound D, reference compound]	–	–	–	3	0	–	–	–	0	1	4	1	4	2
O=C1CCCC(O)=C1C(=O)c1nc2ccccc2n(-c2cccc([N+](=O)[O-])c2)c1=O [II-130]	–	–	–	5	5	5	5	5	5	5	5	–	–	–
O=C1CCCC(O)=C1C(=O)c1nc2ccccc2n(-c2ccccc2)c1=O [II-1]	5	5	5	5	5	5	5	5	–	–	–	–	–	–
COc1ccccc1-n1c(=O)c(C(=O)C2=C(O)CCCC2=O)nc2ccccc21 [II-52]	–	–	–	5	5	5	5	5	5	5	5	–	–	–
O=C1CCCC(O)=C1C(=O)c1nc2cccnc2n(-c2cccc(F)c2)c1=O [IV-7]	–	–	–	5	5	5	5	5	5	5	5	–	–	–
O=C1CCCC(O)=C1C(=O)c1nc2ccccc2n(-c2cccc(F)c2)c1=O [II-7]	5	5	5	5	5	5	5	5	–	–	–	–	–	–
O=C1CCCC(O)=C1C(=O)c1nc2ccccc2n(C2=NOCC2)c1=O [I-131]	5	5	5	5	5	5	5	5	–	–	–	–	–	–
O=C1CCCC(O)=C1C(=O)c1nc2cccnc2n(Cc2ccccc2)c1=O [III-107]	–	–	–	5	4	5	5	5	4	5	5	–	–	–
COc1ccc(-n2c(=O)c(C(=O)C3=C(O)CCCC3=O)nc3ccccc32)cn1 [I-189]	4	5	5	5	5	5	5	5	–	–	–	–	–	–
O=C1CCCC(O)=C1C(=O)c1nc2cccnc2n(-c2ccccc2OC(F)(F)F)c1=O [IV-100]	–	–	–	5	5	–	–	–	5	5	5	5	5	5
COCCn1c(=O)c(C(=O)C2=C(O)CCCC2=O)nc2cccnc21 [III-88]	–	–	–	5	5	5	5	4	5	5	5	–	–	–
Cc1ccccc1-n1c(=O)c(C(=O)C2=C(O)CCCC2=O)nc2cccnc21 [IV-19]	–	–	–	5	5	5	5	5	5	5	5	–	–	–
O=C1CCCC(O)=C1C(=O)c1nc2cc(C(F)(F)F)ccc2n(-c2ccccc2)c1=O [II-249]	–	–	–	5	5	5	5	5	5	5	5	–	–	–
N#CCCn1c(=O)c(C(=O)C2=C(O)CCCC2=O)nc2ccccc21 [Compound I-103]	5	5	5	5	5	5	5	5	–	–	–	–	–	–
